{"source": "patent US11072632B2", "about": "“Inhibitors of 17β-HSD1, 17β-HSD3 and 17β-HSD10” (UNIVERSITÉ LAVAL, priority 2011, dated 2021)", "key": {"[1]": {"tested_on": "ovariectomized (OVX) BALB/c mice", "assay": "In vivo estrogenicity assay in OVX mice (uterus, vagina weight)", "design": "species or system mouse", "conditions": "7 days; for weight of the uterus: OVX mice, s.c.", "protocol": "Female ovariectomized (OVX) BALB/c mice weighing approximately 20 g were obtained from Charles-River, Inc. (St-Constant, Qc., Canada). The animals were housed 5 per cage. Groups of 5 mice were treated with E1 (0.02 μg in 8% EtOH/92% PG) or 17β-HSD1 inhibitor at 10, 50 and 250 μg (0.1 mL s.c.) daily for 7 days. Animals were killed 24 h after administration of the last dose of compound and uteri and vagina were removed, excised of fat and weighed. Total body weights of mice were also recorded."}, "17β-HSD2": {"target": "T1, 17β-HSD2 (Homo sapiens, UniProt P37059)", "T1 construct": "expressed in transfected cells", "T1 sequence (P37059 1-387)": "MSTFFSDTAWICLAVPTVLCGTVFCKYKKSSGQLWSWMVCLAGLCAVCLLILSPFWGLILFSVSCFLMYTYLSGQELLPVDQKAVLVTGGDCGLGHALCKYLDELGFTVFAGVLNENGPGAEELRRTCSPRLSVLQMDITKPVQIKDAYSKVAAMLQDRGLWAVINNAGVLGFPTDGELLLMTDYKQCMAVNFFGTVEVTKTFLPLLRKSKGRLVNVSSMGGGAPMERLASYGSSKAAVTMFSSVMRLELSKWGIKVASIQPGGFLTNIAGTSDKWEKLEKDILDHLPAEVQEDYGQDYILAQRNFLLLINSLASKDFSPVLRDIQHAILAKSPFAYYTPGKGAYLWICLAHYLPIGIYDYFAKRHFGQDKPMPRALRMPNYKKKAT", "assay_type": "cell-based", "conditions": "5 nM to 20 μM", "protocol": "Inhibition assays were performed using stable 17β-HSD2 HEK-293 transfected intact cells with 5000 cells per well using 24 well plates (Poirier et al. Mol. Cell. Endocrinol., 2001, 171, 119-128). The cells were incubated for 1 h at 37° C. in 1 mL of MEM medium steroid free with 60 nM C^14 estradiol."}}, "note": "Entries after “also recorded” stand apart in the source; their conditions may differ."}
{"compound": "C[C@]12CC[C@@H]3c4ccc(CCBr)cc4CC[C@H]3[C@@H]1C[C@H](Cc1cccc(C(N)=O)c1)[C@@H]2O", "note": "[Compound V, 3-{[(16β,17β)-3-(2-bromoethyl)-17-hydroxyestra-1(10),2,4-trien-16-yl]methyl}benzamide]", "values": [{"measurement": "estrogenicity in vivo", "setting": "[1]; 10, 50 and 250 μg/mouse/day", "result": "non-estrogenic in vivo"}, {"measurement": "weight of the uterus", "setting": "[1]; 10 μg/mouse/day", "result": 25, "unit": "mg"}, {"measurement": "weight of the uterus", "setting": "[1]; 50 μg/mouse/day", "result": 24, "unit": "mg"}, {"measurement": "weight of the uterus", "setting": "[1]; 250 μg/mouse/day", "result": 23, "unit": "mg"}, {"measurement": "inhibition of 17β-HSD2 (conversion of E2 to E1)", "setting": "17β-HSD2", "result": "no inhibition; also recorded: did not show any inhibition"}]}
